Assays:
PDH = details: cited from earlier work
[1] = cited from earlier work

| Structure (SMILES) | melting point [°C] | further results |
| --- | --- | --- |
| CC(C)(O)C(=O)Nc1ccc(S(=O)(=O)c2ccccc2)cc1F | 155.5 to 156.5 | – |
| C[S+]([O-])c1ccccc1S(=O)(=O)c1ccc(NC(=O)[C@@](C)(O)C(F)(F)F)c(Cl)c1 (stereo partly shown) | 118 to 120 | – |
| CC(=O)Nc1cc(S(=O)(=O)c2ccccc2)ccc1NC(=O)C(C)(O)C(F)(F)F (stereo not shown) | 205 to 207 | – |
| CC(C)(O)C(=O)Nc1ccc(Sc2ccccc2)cc1F | 91 to 92.5 | – |
| CC(C)(O)C(=O)Nc1ccc(Sc2ccc(NS(C)(=O)=O)cc2)cc1Cl | 138 to 140 | – |
| C[C@@](O)(C(=O)Nc1ccc(S(=O)(=O)c2ccccc2NCCO)cc1Cl)C(F)(F)F | 68 to 70 | – |
| O=C(O)C(Cl)Cl [DCA, dichloroacetic acid] | – | activity of PDH (PDH; after acute administration in animals (Vary et al. 1988)): increases the activity of PDH; proportion of PDH in its active form (PDH; single administration, 150 mg/kg, intraperitoneally (Vary et al. 1988)): increased the proportion of PDH in its active form; glycaemia ([1]; Stacpoole et al. 1978): reducing glycaemia; plasma glucose ([1]; after repeated administration (Evans and Stacpoole 1982)): significant decrease in plasma glucose |
